In patent US8304410B2, “Pyrrole compounds as inhibitors of mycobacteria, synthesis thereof and intermediates thereto” (priority 2007, dated 2012):
Values after ≈ are worked out from the molar mass of the structure shown.

Experiments:
Assay type in all cases: cell-based
M. tuberculosis RMP-R = test: microbe, parasite or virus in culture; conditions: for MIC: Mycobacterium tuberculosis, read-out: M. tuberculosis RMP-R (Rif-R) MIC; for M. tuberculosis RMP-R (Rif-R) MIC: rifampicin-resistant mycobacteria
M. tuberculosis INH-R = test: microbe, parasite or virus in culture; conditions: for MIC: Mycobacterium tuberculosis, read-out: M. tuberculosis INH-R MIC; for M. tuberculosis INH-R MIC: isoniazid-resistant mycobacteria
M. tuberculosis PZA-R = conditions: pirazinamide-resistant mycobacteria
M. tuberculosis SM-R = conditions: streptomycin-resistant mycobacteria

CSc1ccc(-c2cc(CN3CCSCC3)c(C)n2-c2ccc(F)cc2)cc1 [Compound 3a, N-(4-fluorophenyl)-2-methyl-3-thiomorpholinomethyl-5-(4-methylsulfanylphenyl)pyrrole]
MIC (M. tuberculosis RMP-R): 0.25 µg/mL (≈ 0.606 µM) | MIC (M. tuberculosis INH-R): > 16 µg/mL | M. tuberculosis INH-R MIC (M. tuberculosis INH-R): >16 µg/mL

CSc1ccc(-c2cc(CN3CCSCC3)c(C)n2-c2ccc(C)cc2)cc1 [Compound 3b]
PZA-R MIC (M. tuberculosis PZA-R): 0.5 µg/mL | M. tuberculosis RMP-R (Rif-R) MIC (M. tuberculosis RMP-R): 0.25 µg/mL | M. tuberculosis INH-R MIC (M. tuberculosis INH-R): 16 µg/mL | SM-R MIC (M. tuberculosis SM-R): 0.25 µg/mL

CCc1ccc(-n2c(-c3ccc(SC)cc3)cc(CN3CCSCC3)c2C)cc1 [Compound 3c]
PZA-R MIC (M. tuberculosis PZA-R): 0.25 µg/mL | M. tuberculosis RMP-R (Rif-R) MIC (M. tuberculosis RMP-R): 0.25 µg/mL | M. tuberculosis INH-R MIC (M. tuberculosis INH-R): 16 µg/mL | SM-R MIC (M. tuberculosis SM-R): 0.25 µg/mL

CCCc1ccc(-n2c(-c3ccc(SC)cc3)cc(CN3CCSCC3)c2C)cc1 [Compound 3d]
PZA-R MIC (M. tuberculosis PZA-R): 0.5 µg/mL | M. tuberculosis RMP-R (Rif-R) MIC (M. tuberculosis RMP-R): 0.5 µg/mL | M. tuberculosis INH-R MIC (M. tuberculosis INH-R): 8 µg/mL | SM-R MIC (M. tuberculosis SM-R): 0.25 µg/mL

CSc1ccc(-c2cc(CN3CCSCC3)c(C)n2-c2ccc(C(C)C)cc2)cc1 [Compound 3e]
PZA-R MIC (M. tuberculosis PZA-R): 1 µg/mL | M. tuberculosis RMP-R (Rif-R) MIC (M. tuberculosis RMP-R): 1 µg/mL | M. tuberculosis INH-R MIC (M. tuberculosis INH-R): 16 µg/mL | SM-R MIC (M. tuberculosis SM-R): 0.125 µg/mL

CSc1ccc(-c2cc(CN3CCN(C)CC3)c(C)n2-c2ccc(F)cc2)cc1 [Compound 3f]
PZA-R MIC (M. tuberculosis PZA-R): 2 µg/mL | M. tuberculosis RMP-R (Rif-R) MIC (M. tuberculosis RMP-R): 2 µg/mL | M. tuberculosis INH-R MIC (M. tuberculosis INH-R): 8 µg/mL | SM-R MIC (M. tuberculosis SM-R): 1 µg/mL

CSc1ccc(-c2cc(CN3CCOCC3)c(C)n2-c2ccc(F)cc2)cc1 [Compound 3h]
PZA-R MIC (M. tuberculosis PZA-R): 0.5 µg/mL | M. tuberculosis RMP-R (Rif-R) MIC (M. tuberculosis RMP-R): 2 µg/mL | M. tuberculosis INH-R MIC (M. tuberculosis INH-R): >16 µg/mL | SM-R MIC (M. tuberculosis SM-R): 0.25 µg/mL

NNC(=O)c1ccncc1 [Isoniazid, INH, Isoniazid, reference compound]
MIC (M. tuberculosis RMP-R): 0.25 µg/mL (≈ 1.82 µM) | MIC (M. tuberculosis INH-R): > 64 µg/mL

CO[C@H]1/C=C/O[C@@]2(C)Oc3c(C)c(O)c4c(O)c(c(/C=N/N5CCN(C)CC5)c(O)c4c3C2=O)NC(=O)/C(C)=C\C=C\[C@H](C)[C@H](O)[C@@H](C)[C@@H](O)[C@@H](C)[C@H](OC(C)=O)[C@@H]1C [Rifampicin, RIF, Rifampicin]
MIC (M. tuberculosis RMP-R): > 64 µg/mL | MIC (M. tuberculosis INH-R): 0.8 µg/mL (≈ 0.972 µM)

[H]/N=C(/N)N[C@H]1[C@H](O)[C@@H](O)[C@H](O[C@@H]2O[C@@H](C)[C@](O)(C=O)[C@H]2O[C@@H]2O[C@@H](CO)[C@H](O)[C@@H](O)[C@@H]2NC)[C@@H](N/C(N)=N\[H])[C@@H]1O [Streptomycin, SM, Streptomycin, reference compound]
MIC (M. tuberculosis RMP-R): 0.5 µg/mL (≈ 0.86 µM) | MIC (M. tuberculosis INH-R): 0.5 µg/mL (≈ 0.86 µM)
